{"source": "paper PMC8112869", "about": "“Therapeutic inhibition of keratinocyte TRPV3 sensory channel by local anesthetic dyclonine” (eLife, 2021)", "molecular_target": "T1, TRPV3 (Mus musculus, UniProt Q8K424)", "T1 construct": "expressed in transfected cells; host or cells: HEK 293T", "T1 sequence (Q8K424 1-791)": "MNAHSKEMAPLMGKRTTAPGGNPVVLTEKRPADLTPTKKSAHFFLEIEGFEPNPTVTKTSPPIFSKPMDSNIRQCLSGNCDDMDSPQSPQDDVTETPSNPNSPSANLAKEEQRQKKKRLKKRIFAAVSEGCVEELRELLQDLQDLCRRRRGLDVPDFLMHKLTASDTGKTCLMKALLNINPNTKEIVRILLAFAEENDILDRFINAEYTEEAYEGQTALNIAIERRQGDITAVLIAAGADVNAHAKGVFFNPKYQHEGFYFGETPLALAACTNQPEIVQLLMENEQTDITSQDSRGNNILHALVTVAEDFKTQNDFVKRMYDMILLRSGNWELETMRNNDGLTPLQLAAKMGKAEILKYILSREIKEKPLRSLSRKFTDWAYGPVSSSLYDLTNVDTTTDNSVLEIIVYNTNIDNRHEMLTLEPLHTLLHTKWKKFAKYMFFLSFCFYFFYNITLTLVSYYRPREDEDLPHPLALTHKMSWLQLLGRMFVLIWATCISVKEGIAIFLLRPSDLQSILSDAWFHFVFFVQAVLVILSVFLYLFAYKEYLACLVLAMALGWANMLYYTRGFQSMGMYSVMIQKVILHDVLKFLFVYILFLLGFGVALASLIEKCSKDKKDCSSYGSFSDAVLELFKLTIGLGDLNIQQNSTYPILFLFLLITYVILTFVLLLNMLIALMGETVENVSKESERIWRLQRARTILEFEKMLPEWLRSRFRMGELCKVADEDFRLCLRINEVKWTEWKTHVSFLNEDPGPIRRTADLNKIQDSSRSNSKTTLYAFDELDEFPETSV", "assay": "Whole-cell recording of carvacrol-evoked TRPV3 currents in HEK 293T cells", "type": "cell-based", "from_the_text": "Conventional whole-cell and excised patch-clamp recording methods were used. For the recombinant expressing system, green fluorescent EGFP was used as a surface marker for gene expression. Recording pipettes were pulled from borosilicate glass capillaries (World Precision Instruments) and fire-polished to a resistance between 2 and 4 MΩ when filled with internal solution containing (in mM) 140 CsCl, 2.0 MgCl2, 5 EGTA, and 10 HEPES, pH 7.4 (adjusted with CsOH). Bath solution contained (in mM): 140 NaCl, 5 KCl, 3 EGTA, and 10 HEPES, pH 7.4 adjusted with NaOH. For recordings in keratinocytes, the bath saline consisted of (in mM) 140 NaCl, 5 KCl, 2 MgCl2, 2 CaCl2, 10 glucoses, and 10 HEPES, pH 7.4 adjusted with NaOH, and the pipette solution contained (in mM) 140 CsCl, 5 EGTA, and 10 HEPES, pH 7.3 adjusted with CsOH. […] For a subset of recordings, currents were amplified using an Axopatch 200B amplifier (Molecular Devices, Sunnyvale, CA) and recorded through a BNC-2090/MIO acquisition system (National Instruments, Austin, TX) using QStudio developed by Dr. Feng Qin at State University of New York at Buffalo. […] As determined by the conductance tests, the solution around a patch under study was fully controlled by the application of a flow rate of 100 μl/min or greater. […]", "data": [{"smiles": "CCCCOc1ccc(C(=O)CCN2CCCCC2)cc1", "note": "[dyclonine]", "values": [{"measurement": "IC50", "setting": "500 μM carvacrol, after sensitization by 300 μM 2-APB, –60 mV, read-out: IC50 for inhibition of carvacrol-evoked TRPV3 currents", "result": "3.5 ± 0.34", "unit": "µM"}, {"measurement": "Hill coefficient nH", "setting": "carvacrol-evoked", "result": "2.1 ± 0.41"}]}]}
